Test results as given in paper PMC10018702 (Nature chemistry, 2022).

What was measured:
[1] = test system: cancer cell proliferation; settings: cited from earlier work
[2] = biological target: T1, eEF1A ternary complex on human ribosomes (Homo sapiens, UniProt P68104); test: smFRET ternary complex real-time delivery experiment; type: biochemical; settings: 10 μM drug delivered with ternary complex, 25 °C
T1 sequence (P68104 1-462): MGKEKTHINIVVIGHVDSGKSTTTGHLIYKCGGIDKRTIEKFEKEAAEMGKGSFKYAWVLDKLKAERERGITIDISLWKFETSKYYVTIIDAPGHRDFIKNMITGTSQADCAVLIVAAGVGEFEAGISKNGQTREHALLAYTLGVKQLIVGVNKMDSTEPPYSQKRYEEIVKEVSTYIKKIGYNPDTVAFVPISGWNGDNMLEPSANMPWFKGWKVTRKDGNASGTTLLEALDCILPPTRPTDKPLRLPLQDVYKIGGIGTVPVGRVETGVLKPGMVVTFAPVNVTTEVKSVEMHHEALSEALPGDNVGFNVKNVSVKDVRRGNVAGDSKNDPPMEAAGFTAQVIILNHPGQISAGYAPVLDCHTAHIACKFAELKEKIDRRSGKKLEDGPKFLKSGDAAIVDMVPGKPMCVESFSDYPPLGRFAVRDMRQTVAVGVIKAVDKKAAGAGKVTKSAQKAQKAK

[3] = biological target: T1, eEF1A ternary complex on human ribosomes; test: smFRET drug chase experiments; type: binding
[4] = mouse, in vivo, ip, 2 mg/kg
Eμ-Myc/+ lymphoma cells = test: Eμ-Myc lymphoma allograft model; settings: 1.5 or 2.0 mg/kg, intraperitoneal, 3 times per week
HCT116 cells [5] = settings: HCT116, 72 h, alamarBlue
HCT116 cells [6] = test: OPP incorporation assay; settings: HCT116, 24 h continuous treatment, then 1-h OPP pulse
[7] = biological target: eukaryotic elongation factor-1α (eEF1A) (UniProt P68104); test: single-molecule FRET chase
[8] = from rebinding constants, chase with 0-10 μM drug

For `C=C[C@H](C)C[C@@H]1NC(=O)[C@H]([C@H](O)C(C)C)N(C)C(=O)[C@H](C)N(C)C(=O)[C@@H]([C@@H](C)CC)NC(=O)[C@@H]([C@H](O)C(C)C)NC(=O)[C@H]2CCCCN2C(=O)[C@H](C)N(C)C1=O` [A3], which “concentration inhibiting cancer cell proliferation” value [1] is on record?
The value was “low nanomolar concentrations”.

Which aa-tRNA accommodation [2] does the source give for `C=C[C@H](C)C[C@@H]1NC(=O)[C@H]([C@H](O)C(C)C)N(C)C(=O)[C@H](C)N(C)C(=O)[C@@H]([C@@H](C)CC)NC(=O)[C@@H]([C@H](O)C(C)C)NC(=O)[C@H]2CCCCN2C(=O)[C@H](C)N(C)C1=O` [SR-A3] here?
Its aa-tRNA accommodation is “strongly inhibited”.

And the “rebinding to stalled eEF1A-ribosome complex relative to SS-A3” value [3, 8]?
Its value is “twice as fast”.

What about the “rebinding to stalled eEF1A-ribosome complex relative to ternatin-4” value [3, 8] of the same compound?
Its value is “four times as fast”.

And the “residence time longer than ternatin-4 or SS-A3” value ([3]; washout into drug-free buffer)?
Its value is “about 60%”.

And the “AUCinf, fold higher than ternatin-4” value [4]?
Its value is ~ 2.1 fold.

What about the “Cmax, fold higher than ternatin-4” value [4] of the same compound?
The value was ~ 1.7 fold.

What about the body weight (Eμ-Myc/+ lymphoma cells) of the same compound?
The body weight was “no significant body weight loss”.

What about the tolerability (Eμ-Myc/+ lymphoma cells; both dose groups) of the same compound?
The tolerability was “well tolerated”.

What about the “survival of tumor-bearing mice” value (Eμ-Myc/+ lymphoma cells; n = 5 per group) of the same compound?
The value was “dramatically prolonged survival”.

What does the source list for `C=C[C@H](C)C[C@@H]1NC(=O)[C@H]([C@@H](O)C(C)C)N(C)C(=O)[C@H](C)N(C)C(=O)[C@@H]([C@@H](C)CC)NC(=O)[C@@H]([C@H](O)C(C)C)NC(=O)[C@H]2CCCCN2C(=O)[C@H](C)N(C)C1=O` [SS-A3]?
aa-tRNA accommodation [2]: strongly inhibited; fold less potent than SR-A3 (HCT116 proliferation IC50) (HCT116 cells [5]): ~ 3 fold; potency in protein synthesis inhibition compared with SR-A3 (HCT116 cells [6]): slightly less potent

With ternatin-4 (peptide) as the compound, how does the residence time [7] read?
Its residence time is 56 s.

What does the source list for ternatin-4 [reference compound]?
aa-tRNA accommodation [2]: strongly inhibited; potency in protein synthesis inhibition compared with SR-A3 (HCT116 cells [6]): behaved identically
